# Reference: ChEMBL document CHEMBL1201862, “PubChem BioAssay data set” (2004)
#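 Tested at 5 concentrations; 48 h exposure; 96-well plates; endpoints linearly interpolated, else capped at highest concentration. GI50 = concentration required for 50% inhibition of growth.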 Calls of active or inactive are those of the source. Cut-off read from the data, not from the text of the source: active = GI50 up to about 1.1 µM and inactive = higher.
# Experiments:
# Experiment in all cases: growth of human tumour cells (NCI), 48 h
# A498 = system: A498
# BT-549 = system: BT-549
# CAKI-1 = system: CAKI-1
# CCRF-CEM = system: CCRF-CEM
# HOP-92 = system: HOP-92
# HT-29 = system: HT-29
# KM12 = system: KM12
# MCF7 = system: MCF7
# MDA-MB-231 = system: MDA-MB-231
# MDA-MB-435 = system: MDA-MB-435
# PC-3 = system: PC-3
# SK-MEL-28 = system: SK-MEL-28
# SK-OV-3 = system: SK-OV-3
# SNB-19 = system: SNB-19
# SNB-75 = system: SNB-75
# T47D = system: T47D
# TK-10 = system: TK-10
# UO-31 = system: UO-31
# SN12C = system: SN12C
# MDA-N = system: MDA-N
SMILES,GI50 (A498),GI50 (BT-549),GI50 (CAKI-1),GI50 (CCRF-CEM),GI50 (HOP-92),GI50 (HT-29),GI50 (KM12),GI50 (MCF7),GI50 (MDA-MB-231),GI50 (MDA-MB-435),GI50 (PC-3),GI50 (SK-MEL-28),GI50 (SK-OV-3),GI50 (SNB-19),GI50 (SNB-75),GI50 (T47D),GI50 (TK-10),GI50 (UO-31),GI50 (SN12C),GI50 (MDA-N)
CC(=O)Nc1ccc(-c2nc3ccccc3s2)cc1,13.4 µM (inactive),> 10 µM (inactive),22.8 µM (inactive),64.1 µM (inactive),55.5 µM (inactive),73.1 µM (inactive),35.3 µM (inactive),67.5 µM (inactive),26.8 µM (inactive),97.5 µM (inactive),64.7 µM (inactive),71.9 µM (inactive),21.2 µM (inactive),33.4 µM (inactive),30.8 µM (inactive),31.1 µM (inactive),57.8 µM (inactive),45.5 µM (inactive),,
Cc1ccc(S(=O)(=O)c2ccc([N+](=O)[O-])o2)cc1,17 µM (inactive),2.51 µM (inactive),0.597 µM (active),0.242 µM (active),2.38 µM (inactive),1.7 µM (inactive),4.43 µM (inactive),2.55 µM (inactive),2.21 µM (inactive),1.81 µM (inactive),1.6 µM (inactive),1.98 µM (inactive),18.7 µM (inactive),20.1 µM (inactive),5.25 µM (inactive),2.36 µM (inactive),1.57 µM (inactive),1.44 µM (inactive),7.73 µM (inactive),
O=C1NC(c2cccc3ccccc23)Nc2ccc(Cl)cc21 (configuration not stated),0.00143 µM (active),,0.00118 µM (active),0.000618 µM (active),,0.00166 µM (active),0.0022 µM (active),0.0741 µM (active),0.00838 µM (active),< 0.0001 µM (active),0.00165 µM (active),< 0.01 µM (active),0.00105 µM (active),0.00189 µM (active),0.000164 µM (active),20.5 µM (inactive),,0.00319 µM (active),0.00828 µM (active),< 0.0001 µM (active)
CCCc1cn2c(/C=N/NC(=N)N)c(-c3cc([N+](=O)[O-])c(Cl)cc3Cl)nc2s1,1.55 µM (inactive),2.15 µM (inactive),1.77 µM (inactive),0.216 µM (active),1.69 µM (inactive),1.22 µM (inactive),1.5 µM (inactive),1.4 µM (inactive),1.63 µM (inactive),1.8 µM (inactive),1.67 µM (inactive),,1.91 µM (inactive),1.48 µM (inactive),1.71 µM (inactive),1.38 µM (inactive),1.12 µM (inactive),1.79 µM (inactive),1.77 µM (inactive),
Cc1nc2ccc(Br)cc2c(=O)n1-c1nnc(C(C)(C)C)s1,,,> 10 µM (inactive),> 10 µM (inactive),> 10 µM (inactive),> 10 µM (inactive),> 10 µM (inactive),> 10 µM (inactive),> 10 µM (inactive),> 10 µM (inactive),> 10 µM (inactive),> 10 µM (inactive),> 10 µM (inactive),> 10 µM (inactive),> 10 µM (inactive),> 10 µM (inactive),> 10 µM (inactive),2 µM (inactive),> 10 µM (inactive),> 10 µM (inactive)
Cc1cc(N(CCC#N)CCC#N)ccc1/C=N\c1ccc(C(=O)NN2C(=O)/C(=C/c3ccc(N(CCC#N)CCC#N)cc3)N=C2c2cc([N+](=O)[O-])ccc2Cl)cc1,> 100 µM (inactive),,> 100 µM (inactive),65.6 µM (inactive),> 100 µM (inactive),80.5 µM (inactive),> 100 µM (inactive),,,,,> 100 µM (inactive),> 100 µM (inactive),> 100 µM (inactive),> 100 µM (inactive),,> 100 µM (inactive),> 100 µM (inactive),> 100 µM (inactive),
O=c1cc(-c2ccccc2)[nH]c2cc(F)c(F)cc12,,,> 100 µM (inactive),0.379 µM (active),0.789 µM (active),0.998 µM (active),0.326 µM (active),0.323 µM (active),1.44 µM (inactive),0.1 µM (active),0.222 µM (active),1.72 µM (inactive),0.575 µM (active),0.718 µM (active),0.274 µM (active),,3.83 µM (inactive),0.805 µM (active),1.97 µM (inactive),0.0764 µM (active)
COC(=O)n1c(C[P+](c2ccccc2)(c2ccccc2)c2ccccc2)cc2ccccc21,7.26 µM (inactive),,2.06 µM (inactive),0.931 µM (active),0.0318 µM (active),1.75 µM (inactive),1.19 µM (inactive),,,,,4.16 µM (inactive),0.652 µM (active),1.31 µM (inactive),3.94 µM (inactive),,3.34 µM (inactive),0.604 µM (active),2.26 µM (inactive),
Nc1ncnc2c1ncn2CC(OCP(=O)(O)O)Oc1ccccc1 (configuration not stated),> 100 µM (inactive),,> 100 µM (inactive),> 100 µM (inactive),> 100 µM (inactive),,> 100 µM (inactive),> 100 µM (inactive),> 100 µM (inactive),> 100 µM (inactive),> 100 µM (inactive),> 100 µM (inactive),> 100 µM (inactive),> 100 µM (inactive),> 100 µM (inactive),> 100 µM (inactive),> 100 µM (inactive),> 100 µM (inactive),> 100 µM (inactive),> 100 µM (inactive)
CCCc1cc(O)c2c(C)c3[nH]c4ccc(Cl)cc4c3c(C)c2n1,1.49 µM (inactive),,2 µM (inactive),2.07 µM (inactive),2.31 µM (inactive),1.77 µM (inactive),3.48 µM (inactive),1.83 µM (inactive),1.85 µM (inactive),1.6 µM (inactive),4.06 µM (inactive),1.46 µM (inactive),,2.55 µM (inactive),2.9 µM (inactive),1.85 µM (inactive),1.94 µM (inactive),1.75 µM (inactive),2.36 µM (inactive),1.9 µM (inactive)
CCn1ncc2c1nc(-c1ccccc1)c[n+]2[O-],,,,> 100 µM (inactive),,> 100 µM (inactive),> 100 µM (inactive),46 µM (inactive),,> 100 µM (inactive),> 100 µM (inactive),> 100 µM (inactive),,> 100 µM (inactive),36.9 µM (inactive),> 100 µM (inactive),,62.8 µM (inactive),> 100 µM (inactive),
C(/Cc1ccc2c(c1)OCO2)=N\N=C1NCCCCN1,24.8 µM (inactive),> 100 µM (inactive),,82.2 µM (inactive),32.8 µM (inactive),47.8 µM (inactive),88.3 µM (inactive),88.3 µM (inactive),76.2 µM (inactive),> 100 µM (inactive),86.1 µM (inactive),> 100 µM (inactive),27.9 µM (inactive),> 100 µM (inactive),44.8 µM (inactive),54.5 µM (inactive),> 100 µM (inactive),43.9 µM (inactive),73.6 µM (inactive),
O=C1C=CC(O)C2C1CC13SSC4(CC5C(=O)C=CC(O)C5N4C1=O)C(=O)N23 (configuration not stated),3.2 µM (inactive),1.63 µM (inactive),0.155 µM (active),< 0.01 µM (active),0.0966 µM (active),0.0426 µM (active),0.0885 µM (active),1.21 µM (inactive),0.281 µM (active),0.164 µM (active),0.138 µM (active),0.302 µM (active),2.2 µM (inactive),1.36 µM (inactive),1.11 µM (active),0.499 µM (active),0.485 µM (active),0.272 µM (active),0.0601 µM (active),
COc1ccc(/C=C2\N=C3Sc4c([nH]cnc4=O)N3C2=O)cc1,> 100 µM (inactive),,> 100 µM (inactive),> 100 µM (inactive),> 100 µM (inactive),> 100 µM (inactive),> 100 µM (inactive),> 100 µM (inactive),> 100 µM (inactive),> 100 µM (inactive),> 100 µM (inactive),> 100 µM (inactive),> 100 µM (inactive),> 100 µM (inactive),> 100 µM (inactive),> 100 µM (inactive),> 100 µM (inactive),> 100 µM (inactive),> 100 µM (inactive),> 100 µM (inactive)
COC(=O)C1CC2(C)C=CC1N(C(=O)OCc1ccccc1)C2 (configuration not stated),> 100 µM (inactive),54.1 µM (inactive),> 100 µM (inactive),69 µM (inactive),,46.2 µM (inactive),52.1 µM (inactive),52.7 µM (inactive),> 100 µM (inactive),79.6 µM (inactive),87.7 µM (inactive),> 100 µM (inactive),27.7 µM (inactive),> 100 µM (inactive),28.5 µM (inactive),40 µM (inactive),> 100 µM (inactive),69.5 µM (inactive),> 100 µM (inactive),
O=C(O)c1cc2ccccc2c(/N=N/c2ccc(S(=O)(=O)Nc3nccs3)cc2)c1O,,,> 100 µM (inactive),> 100 µM (inactive),> 100 µM (inactive),> 100 µM (inactive),> 100 µM (inactive),> 100 µM (inactive),> 100 µM (inactive),> 100 µM (inactive),> 100 µM (inactive),> 100 µM (inactive),> 100 µM (inactive),,> 100 µM (inactive),> 100 µM (inactive),> 100 µM (inactive),> 100 µM (inactive),> 100 µM (inactive),> 100 µM (inactive)
